Activity calls are given as the source filed them. The rule behind the calls is not given here.
Legend:
[1] = target: T1, Perforin-1 (Homo sapiens) (UniProt P14222); test: Inhibition of recombinant perforin (unknown origin) assessed as decrease in lysis of 51Cr-labelled human Jurkat cells by measuring 51Cr release at 20 uM preincubated for 30 mins followed by cell line addition measured after 4 hrs in presence of 10% mouse serum by gamma counting method relative to control
T1 sequence (whole entry): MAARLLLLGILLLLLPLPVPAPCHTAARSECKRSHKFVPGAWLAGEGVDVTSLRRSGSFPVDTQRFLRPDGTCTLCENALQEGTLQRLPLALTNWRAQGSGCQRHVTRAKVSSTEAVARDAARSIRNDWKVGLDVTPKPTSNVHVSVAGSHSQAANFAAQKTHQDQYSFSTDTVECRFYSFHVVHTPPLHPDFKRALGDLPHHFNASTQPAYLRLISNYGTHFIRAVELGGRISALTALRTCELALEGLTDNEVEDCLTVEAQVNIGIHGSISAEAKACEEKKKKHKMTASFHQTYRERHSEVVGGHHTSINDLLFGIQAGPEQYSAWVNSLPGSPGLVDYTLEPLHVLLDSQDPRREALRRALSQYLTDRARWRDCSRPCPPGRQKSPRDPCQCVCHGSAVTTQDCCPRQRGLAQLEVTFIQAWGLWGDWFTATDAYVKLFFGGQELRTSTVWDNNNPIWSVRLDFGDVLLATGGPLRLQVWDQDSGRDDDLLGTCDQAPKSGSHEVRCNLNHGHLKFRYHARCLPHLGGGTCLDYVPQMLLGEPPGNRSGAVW

[2] = Inhibition of N-terminal His-tagged recombinant human p85alpha expressed in baculovirus infected insect Sf21 cells/recombinant wild type mouse p110alpha using phosphatidylinositol as substrate in presence of [33P]-ATP

inhibition [1]	Structure (SMILES)	IC50 [2]
Active	CN1Cc2cc(-c3ccc(-c4cncc(NS(=O)(=O)c5ccc(F)cc5F)c4)s3)ccc2C1=O	> 6.25 µM
Active	O=C1NCc2cc(-c3ccc(-c4cncc(NS(=O)(=O)c5ccc(F)cc5F)c4)s3)ccc21	
Active	O=C1Cc2cc(-c3ccc(-c4cncc(NS(=O)(=O)c5ccc(F)cc5F)c4)s3)ccc2N1	
Active	O=C1NCc2ccc(-c3ccc(-c4cncc(NS(=O)(=O)c5ccc(F)cc5F)c4)s3)cc21	
